This note sets out measurements from patent US11000033B2, “Ketone or oxime compound, and herbicide” (NISSAN CHEMICAL CORPORATION, priority 2014, dated 2021).

Holding throughout (type): in vivo
The subject of data set [1] is Alopecurus myosuroides. The data set is described as follows: Test Example 5: herbicidal effect by foliage application, plastic box (symbol J). As to conditions: 320 g/ha, 3 weeks after application. Summed up: (§1)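 Greenhouse foliar test: seedlings at 14 days, grown 25° C. to 30° C. in sterilized diluvial soil; compound applied as an aqueous dilution of an emulsion; response read 3 weeks after spraying.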

Data set [2] relates to Stellaria media. Kind of data set: Test Example 4: herbicidal effect by soil treatment (symbol P). As to conditions: application herbicide amount 320 g/ha. Summed up: (§2)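 Seeds were sown in sterilized diluvial soil, covered with about 1.5 cm of soil, and the soil surface was sprayed with a water-diluted emulsion of the compound at a predetermined rate. Plants grew in a greenhouse at 25° C. to 30° C.; effects were scored visually 3 weeks after application.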

In data set [3] the test system is Lolium multiflorum Lam. Kind of data set: Test Example 4: herbicidal effect by soil treatment (symbol K). As to conditions: application herbicide amount 320 g/ha. The method in brief: as §2
The subject of data set [4] is corn. Kind of data set: Test Example 4: effect on crop by soil treatment (symbol c). The conditions noted are these: application herbicide amount 320 g/ha. Summed up: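 Soil-treatment setup: crop and weed seeds were spot-sown into sterilized diluvial soil, then buried beneath approximately 1.5 cm of it, and the boxes were housed in a 25–30° C. greenhouse.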
In data set [5] the test system is Stellaria media. The data set is described as follows: Test Example 5: herbicidal effect by foliage application, plastic box (symbol P). The conditions noted are these: 320 g/ha, 3 weeks after application. The method in brief:
as §1

In data set [6] the test system is Apera spica-venti. Kind of data set: Test Example 4: herbicidal effect by soil treatment (symbol L). As to conditions: application herbicide amount 320 g/ha. The method in brief:
as §2

Data set [7] has as its system Echinochloa crus-galli var. crus-galli. The data set is described as follows: Test Example 4: herbicidal effect by soil treatment (symbol H). The conditions noted are these: application herbicide amount 320 g/ha. The method in brief:
as §2

In data set [8] the test system is Leptochloa chinensis. The data set is described as follows: Test Example 3: herbicidal effect by foliage application, Wagner pot (symbol D). As to conditions: application herbicide amount 320 g/ha. Summed up: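 Post-emergence, paddy-type test: seedlings 14 d old in shallow-flooded (0.1–0.5 cm) alluvial soil, 25–30 °C greenhouse. Emulsion diluted to target rate, sprayed on leaves. Read-out: visual effect on each species at 3 weeks, per set criteria.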

Data set [9] concerns Echinochloa crus-galli var. crus-galli. Kind of data set: Test Example 5: herbicidal effect by foliage application, plastic box (symbol H). The conditions noted are these: 320 g/ha, 3 weeks after application. Summed up:
as §1

Data set [10] deals with Scirpus juncoides. The data set is described as follows: Test Example 1: herbicidal activity, application before weed generation in submerged conditions (symbol B). As to conditions: application herbicide amount 320 g/ha. Summed up: (§3)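 Steps: alluvial soil flooded to 4 cm; weed seeds sown together; rice seedlings (2.5 leaf) transplanted; diluted emulsion applied to water surface the same day as sowing; plants grown at 25–30 °C in greenhouse; herbicidal effect rated on a 0–5 scale at 3 weeks.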

In data set [11] the test system is Setaria viridis. The data set is described as follows: Test Example 4: herbicidal effect by soil treatment (symbol G). The conditions noted are these: application herbicide amount 320 g/ha. Summed up: as §2
For data set [12], the system named is Galium spurium. The data set is described as follows: Test Example 5: herbicidal effect by foliage application, plastic box (symbol Q). As to conditions: 320 g/ha, 3 weeks after application. The method in brief: as §1
Data set [13] has as its system Galium spurium. The data set is described as follows: Test Example 4: herbicidal effect by soil treatment (symbol Q). As to conditions: application herbicide amount 320 g/ha. The method in brief: as §2
For data set [14], the system named is Monochoria vaginalis. The data set is described as follows: Test Example 1: herbicidal activity, application before weed generation in submerged conditions (symbol C). The conditions noted are these: application herbicide amount 320 g/ha. The method in brief:
as §3

For data set [15], the system named is Amaranthus retroflexus. Kind of data set: Test Example 4: herbicidal effect by soil treatment (symbol N). The conditions noted are these: application herbicide amount 320 g/ha. Summed up: as §2
Data set [16] concerns Setaria viridis. The data set is described as follows: Test Example 5: herbicidal effect by foliage application, plastic box (symbol G). The conditions noted are these: 320 g/ha, 3 weeks after application. The method in brief:
as §1

Data set [17] deals with rapeseed. The data set is described as follows: Test Example 5: effect on crop by foliage application, plastic box (symbol g). The conditions noted are these: 320 g/ha, 3 weeks after application. Summed up: (§4)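 Box culture: sterile diluvial soil, seeds spot-sown, ~1.5 cm cover, raised under glass at 25–30° C.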
Data set [18] has as its system wheat. Kind of data set: Test Example 5: effect on crop by foliage application, plastic box (symbol e). As to conditions: 320 g/ha, 3 weeks after application. The method in brief:
as §4

For data set [19], the system named is rapeseed. The data set is described as follows: Test Example 4: effect on crop by soil treatment (symbol g). As to conditions: application herbicide amount 320 g/ha. Summed up: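 Plants are raised in a greenhouse (25° C. to 30° C.) from spot-sown seed, which sits under about 1.5 cm of sterilized diluvial soil in a box shared with weed species.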

With `CON=C(C)CC1CC(OC)=C(c2c(C)cc(C)cc2C)C1=O` (stereo not shown) [1-001, 2-mesityl-3-methoxy-5-{2-(methoxyimino)propyl}cyclopent-2-enone], in [1], the “J: Alopecurus myosuroides, herbicidal effect grade” value is reported as 0 (Herbicidal ratio of 5% or lower (almost no effect)). Further, the “P (Stellaria media) herbicidal effect grade” value in [2] is given as 0 (Herbicidal ratio of 5% or lower (almost no effect)). Moreover, the “K (Lolium multiflorum Lam.) herbicidal effect grade” value in [3] was 0 (Herbicidal ratio of 5% or lower (almost no effect)). In addition, the “c (corn) effect on crop grade” value in data set [4] is reported as 0 (Herbicidal ratio of 5% or lower (almost no effect)). Besides, the “P: Stellaria media, herbicidal effect grade” value in data set [5] was 0 (Herbicidal ratio of 5% or lower (almost no effect)). In [6], the “L (Apera spica-venti) herbicidal effect grade” value was 0 (Herbicidal ratio of 5% or lower (almost no effect)). Besides, the “H (Echinochloa crus-galli var. crus-galli) herbicidal effect grade” value in data set [7] is listed as 0 (Herbicidal ratio of 5% or lower (almost no effect)). In data set [8], the “herbicidal effect on D (Leptochloa chinensis), grade 0-5” value is given as 0 (Herbicidal ratio of 5% or lower (almost no effect)). Moreover, the “H: Echinochloa crus-galli var. crus-galli, herbicidal effect grade” value in data set [9] is listed as 0 (Herbicidal ratio of 5% or lower (almost no effect)). Besides, the “Herbicidal effect grade, B: Scirpus juncoides” value in data set [10] is given as 0 (Herbicidal ratio of 5% or lower (almost no effect)). Moreover, the “G (Setaria viridis) herbicidal effect grade” value in [11] is recorded as 0 (Herbicidal ratio of 5% or lower (almost no effect)). Besides, the “Q: Galium spurium, herbicidal effect grade” value in [12] is listed as 0 (Herbicidal ratio of 5% or lower (almost no effect)). The “Q (Galium spurium) herbicidal effect grade” value in data set [13] was 0 (Herbicidal ratio of 5% or lower (almost no effect)). Further, the “Herbicidal effect grade, C: Monochoria vaginalis” value in [14] is 0 (Herbicidal ratio of 5% or lower (almost no effect)). Moreover, the “N (Amaranthus retroflexus) herbicidal effect grade” value in data set [15] was 0 (Herbicidal ratio of 5% or lower (almost no effect)). Further, the “G: Setaria viridis, herbicidal effect grade” value in [16] is recorded as 0 (Herbicidal ratio of 5% or lower (almost no effect)). Besides, in [17], the “g: rapeseed, effect on crop grade” value is reported as 0 (Herbicidal ratio of 5% or lower (almost no effect)). For the same compound, in [18], the “e: wheat, effect on crop grade” value was 0 (Herbicidal ratio of 5% or lower (almost no effect)). In addition, the “g (rapeseed) effect on crop grade” value in data set [19] is 0 (Herbicidal ratio of 5% or lower (almost no effect)).

With `CON=C(C)CC1CC(OC(=O)COc2ccc(C)cc2)=C(c2c(C)cc(C)cc2C)C1=O` (stereo not shown) [1-072], the “J: Alopecurus myosuroides, herbicidal effect grade” value in data set [1] is 5 (Herbicidal ratio of 90% or more (almost completely withered)). Moreover, in data set [2], the “P (Stellaria media) herbicidal effect grade” value is 0 (Herbicidal ratio of 5% or lower (almost no effect)). Further, the “K (Lolium multiflorum Lam.) herbicidal effect grade” value in data set [3] was 5 (Herbicidal ratio of 90% or more (almost completely withered)). Further, the “c (corn) effect on crop grade” value in data set [4] is 5 (Herbicidal ratio of 90% or more (almost completely withered)). Further, the “P: Stellaria media, herbicidal effect grade” value in data set [5] was 2 (Herbicidal ratio of 20% or higher and lower than 40%). Moreover, the “L (Apera spica-venti) herbicidal effect grade” value in data set [6] is 5 (Herbicidal ratio of 90% or more (almost completely withered)). The “H (Echinochloa crus-galli var. crus-galli) herbicidal effect grade” value in data set [7] was 5 (Herbicidal ratio of 90% or more (almost completely withered)). Moreover, in data set [8], the “herbicidal effect on D (Leptochloa chinensis), grade 0-5” value is given as 5 (Herbicidal ratio of 90% or more (almost completely withered)). Moreover, the “H: Echinochloa crus-galli var. crus-galli, herbicidal effect grade” value in data set [9] is on record as 5 (Herbicidal ratio of 90% or more (almost completely withered)). Also, in data set [10], the “Herbicidal effect grade, B: Scirpus juncoides” value is 4 (Herbicidal ratio of 70% or higher and lower than 90%). Also, the “G (Setaria viridis) herbicidal effect grade” value in [11] is recorded as 5 (Herbicidal ratio of 90% or more (almost completely withered)). Further, the “Q: Galium spurium, herbicidal effect grade” value in data set [12] is 2 (Herbicidal ratio of 20% or higher and lower than 40%). The “Q (Galium spurium) herbicidal effect grade” value in [13] was 0 (Herbicidal ratio of 5% or lower (almost no effect)). Moreover, the “N (Amaranthus retroflexus) herbicidal effect grade” value in [15] is listed as 5 (Herbicidal ratio of 90% or more (almost completely withered)). For the same compound, the “G: Setaria viridis, herbicidal effect grade” value in data set [16] is recorded as 5 (Herbicidal ratio of 90% or more (almost completely withered)). Besides, the “g: rapeseed, effect on crop grade” value in data set [17] is 4 (Herbicidal ratio of 70% or higher and lower than 90%). In [18], the “e: wheat, effect on crop grade” value is 5 (Herbicidal ratio of 90% or more (almost completely withered)). Moreover, the “g (rapeseed) effect on crop grade” value in data set [19] is 4 (Herbicidal ratio of 70% or higher and lower than 90%).
